Reference: article PMC11515993, “ZSTK474 targeting PIK3R3 inhibits the Wilms’ tumor through G0 / G1 phase arrest” (PLOS ONE, 2024)
pIC50: −log10 of the molar value.

Tests used:
WiT49 and WT-CLS1 cells [1] = test: Wound healing (scratch) cell migration assay; assay type: cell-based; conditions: 0, 24, 48 hours, serum-free medium
Protocol: WT cells (2×10^5 cells per well) were cultured in 6-well plates in a 5% CO2 environment at 37°C until confluence was achieved. A consistent wound was generated on the cellular surface, and any detached cells were eliminated using PBS. After this, WiT49 and WT-CLS1 cells were subjected to varying concentrations of ZSTK474 in a serum-free DEME medium. After a 48-hour incubation, cell migration was assessed at 0, 24, and 48 hours under a Nikon microscope. The scratch width measurement was performed using ImageJ.

[2] = design: method as in PMID 16622124; conditions: chronic oral administration, 800 mg/kg, cited from earlier work
WiT49 and WT-CLS1 cells [3] = test: Transwell cell invasiveness assay; assay type: cell-based; conditions: 24 and 48 hours
Protocol: The assessment of cell invasiveness was performed through a Transwell assay on plates coated with matrix gel. When seeded on plates, WiT49 and WT-CLS1 cells were positioned in the […] with a 10% FBS medium, while different concentrations of ZSTK474 in a serum-free medium were placed in the upper chamber. Cells were fixed and stained with crystal violet after 24 and 48 hours of treatment. Cell invasiveness was quantified using ImageJ software while observing under a light microscope.

WT-CLS1 cells [4] = test: RT-PCR of NRG4, CDKN1A, FGF18, PIK3R3, PDGFRB; assay type: cell-based; conditions: among the five genes
Protocol: Total RNA was extracted from WiT49 and WT-CLS1 cells utilizing TRIzol reagent (Invitrogen, CA, USA) and subsequently subjected to RT-PCR following the protocols of RTMasterMix (MCE, NJ, USA). Utilizing the SYBR Green RT-PCR Master Mix from MCE in NJ, USA, mRNA quantification was conducted on the Bio-Rad CFX ConnectTM Real-Time System. The relative expressions of NRG4, CDKN1A, FGF18, PIK3R3, and PDGFRB were measured using GAPDH as the internal reference gene.

[5] = tested on: WiT49 subcutaneous nephroblastoma xenograft tumors; test: Subcutaneous nephroblastoma xenograft tumor growth and tumor immunofluorescence; assay type: in vivo, BALB/C nude mice
Protocol: The in vivo experiments were approved by the Institutional Animal Care and Use Committee of Chongqing Medical University (approval number: CHCMU-IACUC20220323001). After being sourced from the Animal Research Center at Chongqing Medical University, BALB/C nude mice (male, 3 weeks old) were housed in stainless steel cages in a ventilated animal room. The room temperature in the housing facility was maintained at 24°C, with a relative humidity of 60% and a 12-h light/dark cycle. Distilled water and sterilized food were available ad libitum. The mice were acclimated for a week. Injection of 2×10^6 WiT49 cells, suspended in 100μL of DMEM, into the left axilla of the mice was used to induce subcutaneous nephroblastoma xenograft tumors. Once the tumor volume reached 90–100 mm^3, the mice were segregated into four groups (n = 6 in each group). Except for one control group that was given PBS, three groups were given daily doses of ZSTK474 (MCE, China) at 25, 50, and 100 mg/kg over a two-week period. Tumor size and body weight of tumor-bearing mice were monitored throughout the study, and no mice died before meeting criteria for euthanasia. The mice were anaesthetised using 3% isoflurane, blood was taken from the eye socket and then executed by decapitation. Standard blood tests and serum analyses were performed to evaluate toxicity, focusing on liver, cardiac, and renal markers for tumor-bearing mice of each group. Tumor weights were recorded, and samples of various organs and tumors were collected for further analysis. Following fixation in 4% paraformaldehyde for more than 24 hours, tumor tissues underwent dehydration and paraffin embedding and were then sectioned into 4-μm slices. The sections were then subjected to thermal antigen retrieval by treating them with sodium citrate buffer and subsequently exposing them to microwave radiation. Following dewaxing, the sections were blocked using 0.5% bovine serum albumin (BSA) and left to incubate with primary antibodies overnight at 4°C. […]

WiT49 and WT-CLS1 cells [6] = test: Cell cycle assay by flow cytometry; assay type: cell-based; conditions: different concentrations, 48 hours
Protocol: The assessment of cell cycle progression after exposure to different concentrations of ZSTK474 was conducted using the BD Cell Cycle Assay Kit from Dojindo, Japan. In accordance with standardized procedures, WT-CLS1 and WiT49 cells were cultured for 48 hours, then fixed in 75% ethanol for an additional 48 hours. Following this, the cells were centrifuged, resuspended twice in PBS, and stained with propidium iodide and RNase at 37°C for 30 minutes. Lastly, cell cycle distribution was assessed through flow cytometry.

WiT49 and WT-CLS1 cells [7] = test: CCK-8 growth curves; assay type: cell-based; conditions: 1/2, 1 and 2 times IC50; 0, 24, 48, 72 hours
Protocol: (§1) The assessment of cell proliferation was conducted utilizing the CCK-8 assay sourced from MCE (HY-K0301, USA). Following detachment utilizing 0.25% trypsin, WiT49 (2.5×10^3) and WT-CLS1 (3×10^3) cells were cultured in 96-well plates. Following adhesion, cells were subjected to varying doses of ZSTK474 (0–32 μM) for a duration of 48 hours. Following a 2-hour incubation with culture medium (90 μL) and CCK-8 reagent (10 μL) at 37°C, the measurement of the absorbance at 450 nm was conducted to measure the IC50 value of ZSTK474. Following this, the cells were treated with ZSTK474 at concentrations equivalent to 1/2, 1, and 2 times the IC50 value. Growth curves were subsequently plotted at 0, 24, 48, and 72 hours post-incubation.

WiT49 cells [8] = test: Annexin V apoptosis flow cytometry; assay type: cell-based; conditions: WiT49, 48 hours, IC50 dose
Protocol: (§2) The assessment of apoptosis was carried out using the Annexin V Apoptosis Kit (BDPharmingen, 5565547, USA). WiT49 and WT-CLS1 cells were cultured in 6-well plates for 12 hours. Subsequently, they were exposed to different concentrations of ZSTK474 for 48 hours and then analyzed using flow cytometry. FlowJo 10.8.1 software was utilized for data analysis.

WT-CLS1 cells [9] = test: Annexin V apoptosis flow cytometry; assay type: cell-based; conditions: WT-CLS1, 48 hours, IC50 dose
Protocol: as §2

WiT49 cells [10] = test: CCK-8 cell proliferation assay (IC50); assay type: cell-based; conditions: 48-hour treatment
Protocol: as §1

WT-CLS1 cells [11] = test: CCK-8 cell proliferation assay (IC50); assay type: cell-based; conditions: 48-hour treatment
Protocol: as §1

[12] = In vivo safety in WiT49 tumor-bearing mice (body weight, blood and serum tests, organ HE staining); conditions: two weeks; for ALT / AST / BUN / CK / CRE: tumor-bearing nude mice
Protocol: The in vivo experiments were approved by the Institutional Animal Care and Use Committee of Chongqing Medical University (approval number: CHCMU-IACUC20220323001). After being sourced from the Animal Research Center at Chongqing Medical University, BALB/C nude mice (male, 3 weeks old) were housed in stainless steel cages in a ventilated animal room. The room temperature in the housing facility was maintained at 24°C, with a relative humidity of 60% and a 12-h light/dark cycle. Distilled water and sterilized food were available ad libitum. The mice were acclimated for a week. Injection of 2×10^6 WiT49 cells, suspended in 100μL of DMEM, into the left axilla of the mice was used to induce subcutaneous nephroblastoma xenograft tumors. Once the tumor volume reached 90–100 mm^3, the mice were segregated into four groups (n = 6 in each group). Except for one control group that was given PBS, three groups were given daily doses of ZSTK474 (MCE, China) at 25, 50, and 100 mg/kg over a two-week period. Tumor size and body weight of tumor-bearing mice were monitored throughout the study, and no mice died before meeting criteria for euthanasia. The mice were anaesthetised using 3% isoflurane, blood was taken from the eye socket and then executed by decapitation. Standard blood tests and serum analyses were performed to evaluate toxicity, focusing on liver, cardiac, and renal markers for tumor-bearing mice of each group. Tumor weights were recorded, and samples of various organs and tumors were collected for further analysis.
Fresh tumor samples were fixed in paraformaldehyde for 72 hours. The samples were processed through paraffin embedding and subsequently sectioned at a thickness of 4 μm. The subsequent procedures comprised hydration with xylene and alcohol, staining with hematoxylin and eosin, and dehydration through immersion in graded alcohol and xylene. Subsequently, images were acquired using light microscopy from Nikon, Japan.

WiT49 and WT-CLS1 cells [13] = test: TUNEL assay; assay type: cell-based; conditions: 48 hours, low, medium and high dose
Protocol: In WT cells, apoptosis-induced DNA damage was identified through TUNEL staining in the low, medium, and high-dose intervention groups. After a 12-hour incubation in 24-well plates, cells were treated with varying concentrations of ZSTK474 for 48 hours. The cells were then subjected to TUNEL staining according to the manufacturer’s instructions. The cell nuclei were counterstained with DAPI and then mounted utilizing an anti-fade mounting medium. The Nikon C2 microscope was employed for image acquisition.

WiT49 and WT-CLS1 cells [14] = test: Western blot of treated WT cells; assay type: cell-based
Protocol: The protein lysis solution containing 1% PMSF was used to lyse both WiT49 and WT-CLS1 cells treated with ZSTK474. After centrifugation at 12000g for 20 minutes, the protein content was quantified using a BCA assay kit (Thermo, China). Subsequently, 10 μg of protein underwent electrophoresis on a 6%-12.5% SDS-PAGE gel (EpiZyme, China) and was then transferred to a PVDF membrane (Millipore, ISEQ00010, USA) via semi-dry electrotransfer. After three TBST washes, the PVDF membranes were exposed to primary antibodies (Akt, MMP2, MMP9, PI3K, p-PI3K, p-Akt, PCNA, VEGF, P21, CyclinD, CDK4, GAPDH from ZENBIO, Chengdu, China; PIK3R3 from Proteintech, Wuhan, China) overnight at a 1:1000 dilution and 4°C. After being washed three times in TBST, the PVDF membrane was incubated with secondary antibodies (1:20000, ZENBIO, China) for one hour at room temperature. The Bio-RAD analyzer and Image Lab software were utilized for imaging and analysis.

Question: Which “cell migration (scratch assay)” value (WiT49 and WT-CLS1 cells [1]) does the source give for `FC(F)c1nc2ccccc2n1-c1nc(N2CCOCC2)nc(N2CCOCC2)n1` [ZSTK474] here?
Answer: reduced migration rates

Question: What about the weight loss ([2]; by day 28) of the same compound?
Answer: 14%

Question: And the dermal toxicity ([2]; more than 28 days)?
Answer: did not result in any dermal toxicity

Question: And the “toxic damage to vital organs” value ([2]; more than 28 days)?
Answer: no evidence of toxic damage to vital organs

Question: And the “invasion capacity (Transwell)” value (WiT49 and WT-CLS1 cells [3])?
Answer: decrease in invasion capacity

Question: What about the “PIK3R3 RNA level (RT-PCR)” value (WT-CLS1 cells [4]) of the same compound?
Answer: most pronounced downregulation

Question: What about the “levels of PCNA, MMP2, MMP9 and VEGF in tumor tissues (immunofluorescence)” value ([5]; 25, 50 and 100 mg/kg) of the same compound?
Answer: markedly reduced

Question: What about the “subcutaneous tumor volume vs control” value ([5]; day 5, high-dose treatment group) of the same compound?
Answer: initial reductions in tumor volume

Question: What about the “subcutaneous tumor volume vs control” value ([5]; day 11, treatment group) of the same compound?
Answer: notable reduction in tumor volumes

Question: What about the “percentage of cells in the G0/G1 phase” value (WiT49 and WT-CLS1 cells [6]) of the same compound?
Answer: significant rise in the percentage of cells in the G0/G1 phase

Question: And the “cell growth (proliferation curve)” value (WiT49 and WT-CLS1 cells [7])?
Answer: dose-dependent suppression of cell growth

Question: And the “rise in apoptotic cells compared to the controls” value (WiT49 cells [8])?
Answer: 20%

Question: What about the “rise in apoptotic cells compared to the controls” value (WT-CLS1 cells [9]) of the same compound?
Answer: below 10%

Question: And the pIC50 (WiT49 cells [10])?
Answer: 5.70

Question: What about the pIC50 (WT-CLS1 cells [11]) of the same compound?
Answer: 5.60

Question: What about the ALT ([12]; 25 mg/kg daily) of the same compound?
Answer: 69.7(44.7–96.9)

Question: And the AST ([12]; 25 mg/kg daily)?
Answer: 117.5 (95.8–153.7)

Question: And the BUN ([12]; 25 mg/kg daily)?
Answer: 8.3(5.6–10.6)

Question: What about the CK ([12]; 25 mg/kg daily) of the same compound?
Answer: 1084.2 (1029.0–1145.0)

Question: And the CRE ([12]; 25 mg/kg daily)?
Answer: 13.0(11.0–15.0)

Question: And the ALT ([12]; 50 mg/kg daily)?
Answer: 62.6(48.1–88.2)

Question: And the AST ([12]; 50 mg/kg daily)?
Answer: 126.1 (99.4–174.1)

Question: And the BUN ([12]; 50 mg/kg daily)?
Answer: 7.7(5.1–10.8)

Question: What about the CK ([12]; 50 mg/kg daily) of the same compound?
Answer: 1009.5 (793.0–1141.0)

Question: And the CRE ([12]; 50 mg/kg daily)?
Answer: 12.7(11.0–14.0)

Question: What about the ALT ([12]; 100 mg/kg daily) of the same compound?
Answer: 60.6(50.4–76.5)

Question: And the AST ([12]; 100 mg/kg daily)?
Answer: 130.4 (97.7–173.1)

Question: And the BUN ([12]; 100 mg/kg daily)?
Answer: 7.3(5.1–10.1)

Question: And the CK ([12]; 100 mg/kg daily)?
Answer: 952.5 (637.0–1135.0)

Question: And the CRE ([12]; 100 mg/kg daily)?
Answer: 12.5(10.0–15.0)

Question: And the “hematological indices and organ pathology examination vs control” value ([12]; 25, 50, 100 mg/kg daily)?
Answer: no notable variances

Question: And the “post-administration body weight changes vs PBS control” value ([12]; 25, 50, 100 mg/kg daily)?
Answer: no significant differences

Question: What about the “apoptosis-induced DNA damage (TUNEL)” value (WiT49 and WT-CLS1 cells [13]) of the same compound?
Answer: late apoptotic DNA damage response

Question: And the “expression levels of PCNA, MMP2, MMP9 and VEGF (Western blot)” value (WiT49 and WT-CLS1 cells [14]; WT cells)?
Answer: lowered expression levels

Question: And the “p-PI3K/PI3K and p-Akt/Akt (Western blot)” value (WiT49 and WT-CLS1 cells [14]; WT cells)?
Answer: reduced levels

Question: And the “P21 expression (Western blot)” value (WiT49 and WT-CLS1 cells [14]; WiT49 and WT-CLS1)?
Answer: elevation in P21 expression

Question: What about the “cyclin D and CDK4 levels (Western blot)” value (WiT49 and WT-CLS1 cells [14]; WiT49 and WT-CLS1) of the same compound?
Answer: reduction in cyclin D and CDK4 levels
